Source: patent US20220142957A1, “TERPENE BASED THERAPEUTIC DEEP EUTECTIC SYSTEM, METHOD OF OBTAINING AND USES THEREOF” (priority 2019, published 2022)

Assays:
HT29 cells [1] = test: Antiproliferative assay in HT29 cells (MTS); assay type: cell-based, human; conditions: 24 hours, mean ± SD
Experimental: In one embodiment, human Caco-2 and HT29 cell lines were obtained from Deutsche Sammlung von Mikroorganismen and Zellkulturen (DSMZ, Germany) and American Type Culture Collection (ATCC, USA), respectively. These cell lines were cultured in RPMI 1640 medium supplemented with 10% of heat-inactivated Fetal Bovine Serum (FBS). […] Cells were maintained at 37° C. with 5% CO2 in a humidified incubator and routinely grown as a monolayer in 75 cm^2 culture flasks. The cell culture medium and supplements were purchased from Invitrogen (Gibco, Invitrogen Corporation, UK). In one embodiment, the antiproliferative effect of […] and standard compounds was evaluated in HT29 cells. Briefly, cells were seeded at a density of 1×10^4 cells/well in 96-well culture plates. […] Cells incubated only with culture medium were considered as control. Cell proliferation was measured after 24 hours using MTS reagent, as mentioned above. Results were expressed in terms of percentage of living cells relative to the control. At least three independent experiments were performed in triplicate. In one embodiment, all data were expressed as mean±Standard Deviation (SD).

[2] = Cytotoxicity assay in confluent, non-differentiated Caco-2 cells (MTS); assay type: cell-based, human; conditions: human, confluent, non-differentiated Caco-2 cells, isolated compounds, mean ± SD
Experimental: (§1) The cell culture medium and supplements were purchased from Invitrogen (Gibco, Invitrogen Corporation, UK).
(§2) Cells incubated only with culture medium were considered as control. […] At least three independent experiments were performed in triplicate.
(§3) A p-value<0.05 was considered statistically significant.

HT29 cells [3] = test: Cell cycle assessment by flow cytometry (propidium iodide); conditions: 24 hours, non-cytotoxic concentrations (FIG. 5A)
Caco-2 cells = test: Cytotoxicity assay in confluent, non-differentiated Caco-2 cells (MTS); assay type: cell-based, human; conditions: isolated compounds, 24 hours, mean ± SD
Experimental: as §1, §2, §3

HT29 cells [4] = test: Apoptosis by caspase-3 activity (NucView488/MitoView633); assay type: cell-based, human; conditions: 2 mM, 24 hours (FIG. 5B)
Experimental: In one embodiment, apoptosis was evaluated by caspase-3 activity using NucView488™ and MitoView633™ Apoptosis Assay Kit (Biotium, USA) that allows staining of living cells by a far-red fluorescent dye MitoView633™ and the intracellular caspase-3/7 activity and cells nuclei morphological changes by bright green fluorescent dye NucView488™. […] Staining was performed with 200 μL/well of culture medium containing 1 μL of NucView488™ and 1 μL of MitoView633™ for 2 hours. Cells were observed under fluorescence microscope (Leica DM6000, Germany) and image analysis performed using ImageJ software.

| EC50 (HT29 cells [1]; Homo sapiens, HT-29, isolated compounds) [µM] | Compound | EC50 at 24 h [2] [µM] | effect on cell cycle (HT29 cells [3]) | EC50 (HT29 cells [1]; isolated compounds) [µM] | EC50 (Caco-2 cells) [µM] | induction of apoptosis via caspase-3 activity (HT29 cells [4]) |
| --- | --- | --- | --- | --- | --- | --- |
| 341 ± 81 | CCCCCCCCCC(=O)O [CA, Capric acid] | 1330 ± 223 | – | – | – | – |
| – | CC(C)Cc1ccc(C(C)C(=O)O)cc1 (stereo not shown) [IBU, Ibuprofen] | – | promoted cell cycle arrest in G1-phase | – | – | – |
| – | S-Limonene | – | promoted cell cycle arrest in G1-phase | 661 ± 25 | 2640 ± 108 | capable of inducing apoptosis via caspase-3 activity |
